Reference: ChEMBL document CHEMBL4814046, “Inhibitory effects and mechanism of antifungal action of the natural cyclic depsipeptide, aureobasidin A against Cryptococcus neoformans” (Bioorg Med Chem Lett, 2021)
≈ marks a conversion by molar mass, not a printed value. Calls of active or inactive are those of the source. No cut-off for these calls is given here. *1 amine or outer side, *2 acyl side, *3 side chain or, on linkers, in order; H or OH if unused. Where a SMILES comes first, the peptide text is derived from it. [ ]: non-standard residue; d: D form. X1 = CC[C@@H](C)[C@@H](O[*:1])C(=O)[*:2]; NMeVal(β-OH) = CN[C@H](C(=O)O)C(C)(C)O; NMeF = CN[C@@H](Cc1ccccc1)C(=O)O; aIle = CC[C@@H](C)[C@H](N)C(=O)O; NMeV = CN[C@H](C(=O)O)C(C)C

What was measured:
[1] = test system: Cryptococcus neoformans; experiment: Fungicidal activity against Cryptococcus neoformans PFCC 93-589 by broth microdilution assay; assay type: functional
[2] = test system: Cryptococcus neoformans; experiment: Synergistic antifungal activity against Cryptococcus neoformans PFCC 93-589 assessed as fractional inhibitory concentration index in presence of fluconazole by checkerboard microtiter assay; assay type: functional
[3] = test system: Cryptococcus neoformans; experiment: Antifungal activity against Cryptococcus neoformans PFCC 93-589 by broth microdilution assay; assay type: functional
[4] = test system: Cryptococcus neoformans; experiment: Induction of morphological changes in Cryptococcus neoformans PFCC 93-589 assessed as disorganization of cytoplasmic content at 2 ug/ml after 48 hrs by TEM analysis; assay type: functional, organism-based; details: dose 2.0 µg/ml
[5] = test system: Cryptococcus neoformans; experiment: Inhibition of ergosterol biosynthesis in Cryptococcus neoformans PFCC 93-589 cell membrane assessed as ergosterol content at 0.5 times MIC incubated for 48 hrs by UV-visible spectrophotometric analysis (reference value: 0.134); assay type: functional, cell membranes
[6] = test system: Cryptococcus neoformans; experiment: Inhibition of ergosterol biosynthesis in Cryptococcus neoformans PFCC 93-589 cell membrane at 0.5 times MIC incubated for 48 hrs by UV-visible spectrophotometric analysis; assay type: functional, cell membranes
[7] = test system: Cryptococcus neoformans; experiment: Inhibition of ergosterol biosynthesis in Cryptococcus neoformans PFCC 93-589 cell membrane assessed as ergosterol content at 1 times MIC incubated for 48 hrs by UV-visible spectrophotometric analysis (reference value: 0.134); assay type: functional, cell membranes
[8] = test system: Cryptococcus neoformans; experiment: Inhibition of ergosterol biosynthesis in Cryptococcus neoformans PFCC 93-589 cell membrane at 1 times MIC incubated for 48 hrs by UV-visible spectrophotometric analysis; assay type: functional, cell membranes
[9] = test system: Cryptococcus neoformans; experiment: Antifungal activity against Cryptococcus neoformans PFCC 93-589 after 2 days in absence of sorbitol by microdilution assay; assay type: functional; details: PFCC 93-589, 48 h, time 2 day
[10] = test system: Cryptococcus neoformans; experiment: Antifungal activity against Cryptococcus neoformans PFCC 93-589 after 2 days in presence of sorbitol by microdilution assay; assay type: functional; details: PFCC 93-589, 48 h, time 2 day
[11] = test system: Cryptococcus neoformans; experiment: Antifungal activity against Cryptococcus neoformans PFCC 93-589 after 7 days in absence of sorbitol by microdilution assay; assay type: functional; details: PFCC 93-589, 168 h, time 7 day
[12] = test system: Cryptococcus neoformans; experiment: Antifungal activity against Cryptococcus neoformans PFCC 93-589 after 7 days in presence of sorbitol by microdilution assay; assay type: functional; details: PFCC 93-589, 168 h, time 7 day
[13] = test system: Cryptococcus neoformans; experiment: Antifungal activity against Cryptococcus neoformans PFCC 93-589 assessed as increase in extracellular potassium leakage at 2 times MIC incubated up to 12 hrs measured per mg dry weight of cell by spectrophotometric method; assay type: functional; details: time hrs <=12
[14] = test system: Cryptococcus neoformans; experiment: Antifungal activity against Cryptococcus neoformans PFCC 93-589 assessed as inhibition of melanin production at 0.5 times MIC incubated for 2 to 10 days; assay type: functional, organism-based; details: time 2-10 day
[15] = test system: Cryptococcus neoformans; experiment: Antifungal activity against Cryptococcus neoformans PFCC 93-589 assessed as TOS production at 0.5 times MIC incubated for 10 mins measured per mg of protein by colorimetric method (reference value: 1.04 umol); assay type: functional
[16] = test system: Cryptococcus neoformans; experiment: Antifungal activity against Cryptococcus neoformans PFCC 93-589 assessed as TOS production at 1 times MIC incubated for 10 mins measured per mg of protein by colorimetric method (reference value: 1.19 umol); assay type: functional
[17] = test system: Cryptococcus neoformans; experiment: Antifungal activity against Cryptococcus neoformans PFCC 93-589 assessed as TOS production at 2 times MIC incubated for 10 mins measured per mg of protein by colorimetric method (reference value: 1.63 umol); assay type: functional
[18] = Hemolytic activity in human RBC at 8 ug/ml incubated for 30 mins; assay type: ADME, cell-based, Erythrocyte; details: red blood cells (erythrocytes), at 8 µg/mL, read-out: Activity
[19] = Hemolytic activity in human RBC at 4 ug/ml incubated for 30 mins; assay type: cell-based, Erythrocyte; details: red blood cells (erythrocytes), at 4 µg/mL, read-out: Activity
[20] = Hemolytic activity in human RBC at 2 ug/ml incubated for 30 mins; assay type: ADME, cell-based, Erythrocyte; details: red blood cells (erythrocytes), at 2 µg/mL, read-out: Activity
[21] = Hemolytic activity in human RBC at 1 ug/ml incubated for 30 mins; assay type: ADME, cell-based, Erythrocyte; details: red blood cells (erythrocytes), at 1 µg/mL, read-out: Activity
[22] = Hemolytic activity in human RBC at 0.5 ug/ml incubated for 30 mins; assay type: ADME, cell-based, Erythrocyte; details: red blood cells (erythrocytes), at 0.5 µg/mL, read-out: Activity
[23] = Cytotoxicity against human HEK293 cells assessed as cell survival at 0.25 times MIC incubated for 24 hrs by MTT assay; assay type: cell-based; details: read-out: Activity
[24] = Cytotoxicity against human HEK293 cells assessed as cell survival at 0.5 times MIC incubated for 24 hrs by MTT assay; assay type: cell-based; details: read-out: Activity
[25] = Cytotoxicity against human HEK293 cells assessed as cell survival at 1 times MIC incubated for 24 hrs by MTT assay; assay type: cell-based; details: read-out: Activity
[26] = Cytotoxicity against human HEK293 cells assessed as inhibition of cell viability at 2 times MIC incubated for 24 hrs by MTT assay; assay type: cell-based; details: at 8 µg/mL, read-out: INH
[27] = test system: Cryptococcus neoformans; experiment: Induction of morphological changes in Cryptococcus neoformans PFCC 93-589 assessed as excessive vacuolization at 2 ug/ml after 48 hrs by TEM analysis; assay type: functional, organism-based; details: dose 2.0 µg/ml
[28] = test system: Cryptococcus neoformans; experiment: Induction of morphological changes in Cryptococcus neoformans PFCC 93-589 assessed as deposition of lipid globules at 2 ug/ml after 48 hrs by TEM analysis; assay type: functional, organism-based; details: dose 2.0 µg/ml
[29] = test system: Cryptococcus neoformans; experiment: Upregulation of Lac1 gene expression in Cryptococcus neoformans PFCC 93-589 assessed as fold increase in […] at 2 ug/ml by SYBR green based RT-PCR analysis; assay type: functional; details: dose 2.0 µg/ml
[30] = test system: Cryptococcus neoformans; experiment: Downregulation of Cxt1p gene expression in Cryptococcus neoformans PFCC 93-589 assessed as fold decrease in […] at 2 ug/ml by SYBR green based RT-PCR analysis; assay type: functional; details: dose 2.0 µg/ml
[31] = test system: Aspergillus niger; experiment: Antifungal activity against Aspergillus niger incubated for 48 hrs by broth microdilution method; assay type: functional
[32] = test system: Aspergillus fumigatus; experiment: Antifungal activity against Aspergillus fumigatus incubated for 48 hrs by broth microdilution method; assay type: functional
[33] = test system: Aspergillus flavus; experiment: Antifungal activity against Aspergillus flavus incubated for 48 hrs by broth microdilution method; assay type: functional
[34] = test system: Candida albicans; experiment: Antifungal activity against Candida albicans incubated for 24 hrs by broth microdilution method; assay type: functional
[35] = test system: Nakaseomyces glabratus; experiment: Antifungal activity against Candida glabrata incubated for 24 hrs by broth microdilution method; assay type: functional
[36] = test system: Candida tropicalis; experiment: Antifungal activity against Candida tropicalis incubated for 24 hrs by broth microdilution method; assay type: functional
[37] = test system: Candida parapsilosis; experiment: Antifungal activity against Candida parapsilosis incubated for 24 hrs by broth microdilution method; assay type: functional; details: Lodderomyces parapsilosis
[38] = test system: Pichia kudriavzevii; experiment: Antifungal activity against Candida krusei incubated for 24 hrs by broth microdilution method; assay type: functional
[39] = test system: Cryptococcus neoformans; experiment: Antifungal activity against Cryptococcus neoformans PFCC 93-589 assessed as half minimum inhibitory concentration by broth microdilution assay; assay type: functional
[40] = test system: Cryptococcus neoformans; experiment: Antifungal activity against Cryptococcus neoformans PFCC 93-589 in presence of fluconazole by checkerboard microtiter assay; assay type: functional
[41] = test system: Cryptococcus neoformans; experiment: Downregulation of Cxt1p gene expression in Cryptococcus neoformans PFCC 93-589 at 2 ug/ml by SYBR green based RT-PCR analysis relative to control; assay type: functional; details: dose 2.0 µg/ml
[42] = Hemolytic activity in human RBC at 16 ug/ml incubated for 30 mins; assay type: ADME, cell-based, Erythrocyte; details: red blood cells (erythrocytes), at 16 µg/mL, read-out: Activity
[43] = test system: Cryptococcus neoformans; experiment: Induction of morphological changes in Cryptococcus neoformans PFCC 93-589 assessed as disorganization of cytoplasmic content at 4 ug/ml after 48 hrs by TEM analysis; assay type: functional, organism-based; details: dose 4.0 µg/ml
[44] = test system: Cryptococcus neoformans; experiment: Induction of morphological changes in Cryptococcus neoformans PFCC 93-589 assessed as disintegration and loosening of cell membrane at 4 ug/ml after 48 hrs by TEM analysis; assay type: functional, organism-based; details: dose 4.0 µg/ml
[45] = test system: Cryptococcus neoformans; experiment: Upregulation of Lac1 gene expression in Cryptococcus neoformans PFCC 93-589 at 4 ug/ml by SYBR green based RT-PCR analysis; assay type: functional; details: dose 4.0 µg/ml
[46] = test system: Cryptococcus neoformans; experiment: Downregulation of Cxt1p gene expression in Cryptococcus neoformans PFCC 93-589 at 4 ug/ml by SYBR green based RT-PCR analysis; assay type: functional; details: dose 4.0 µg/ml
[47] = test system: Cryptococcus neoformans; experiment: Antifungal activity against Cryptococcus neoformans PFCC 93-589 in presence of Aureobasidin-A by checkerboard microtiter assay; assay type: functional
[48] = Cytotoxicity against human HEK293 cells assessed as cell viability at 2 times MIC incubated for 24 hrs by MTT assay; assay type: cell-based; details: read-out: Activity

CC[C@@H](C)[C@@H]1NC(=O)[C@@H]2CCCN2C(=O)[C@H](Cc2ccccc2)N(C)C(=O)[C@H](Cc2ccccc2)NC(=O)[C@H](C(C)C)N(C)C(=O)[C@@H]([C@H](C)CC)OC(=O)[C@H](C(C)(C)O)N(C)C(=O)[C@H](CC(C)C)NC(=O)[C@H](C(C)C)N(C)C1=O [AUREOBASIDIN A] (cyclo(F[NMeF]P[aIle][NMeV]L[NMeVal(β-OH)][X1][NMeV]))
MFC [1]: 8 µg/mL (≈ 7.26 µM)
fractional inhibitory concentration index (FICI) [2]: 0.26
MIC [3]: 4 µg/mL (≈ 3.63 µM)
Activity [4]: Active
Activity [5]: 0.095
inhibition [6]: 29.1%
Activity [7]: 0.078
inhibition [8]: 41.8%
MIC [9]: 8 µg/mL (≈ 7.26 µM)
MIC [10]: 8 µg/mL
MIC [11]: 16 µg/mL (≈ 14.5 µM)
MIC [12]: 16 µg/mL
Activity [13]: 2.51 mM
Activity [14]: Active
Activity [15]: 1.46 nmol
Activity [16]: 2.12 nmol
Activity [17]: 3.09 nmol
hemolysis at 0.5 h, 8 ug/ml [18]: 2.4%
hemolysis at 0.5 h, 4 ug/ml [19]: 1.35%
hemolysis at 0.5 h, 2 ug/ml [20]: 0.65%
hemolysis at 0.5 h, 1 ug/ml [21]: 0.31%
hemolysis at 0.5 h, 0.5 ug/ml [22]: 0%
viability at 24 h, 0.25 times MIC [23]: 98%
viability at 24 h, 0.5 times MIC [24]: 89%
viability at 24 h, 1 times MIC [25]: 75%
cytotoxicity at 24 h, 2 times MIC [26]: 40%
Activity [27]: Active
Activity [28]: Active
fold change (FC) [29]: 11.7
fold change (FC) [30]: 0.2
MIC [31]: 800 µg/mL (≈ 726 µM)
MIC [32]: > 50000 µg/mL
MIC [33]: > 50000 µg/mL
MIC [34]: < 2000 µg/mL
MIC [35]: < 2000 µg/mL
MIC [36]: < 2000 µg/mL
MIC [37]: < 2000 µg/mL
MIC [38]: < 2000 µg/mL
MIC [39]: 2 µg/mL (≈ 1.82 µM)
MIC [40]: 1 µg/mL
inhibition [41]: 80%

OC(Cn1cncn1)(Cn1cncn1)c1ccc(F)cc1F [FLUCONAZOLE]
MFC [1]: 16 µg/mL (≈ 52.2 µM)
MIC [3]: 8 µg/mL (≈ 26.1 µM)
Activity [5]: 0.055
inhibition [6]: 59%
Activity [7]: 0.047
inhibition [8]: 64.9%
MIC [9]: 16 µg/mL (≈ 52.2 µM)
MIC [10]: 16 µg/mL
MIC [11]: 64 µg/mL (≈ 209 µM)
MIC [12]: 64 µg/mL
Activity [14]: Active
hemolysis at 0.5 h, 8 ug/ml [18]: 42%
hemolysis at 0.5 h, 4 ug/ml [19]: 34%
hemolysis at 0.5 h, 2 ug/ml [20]: 29%
hemolysis at 0.5 h, 1 ug/ml [21]: 18%
hemolysis at 0.5 h, 16 ug/ml [42]: 53%
viability at 24 h, 0.25 times MIC [23]: 99.9%
viability at 24 h, 0.5 times MIC [24]: 97.9%
viability at 24 h, 1 times MIC [25]: 95.5%
Activity [43]: Active
Activity [44]: Active
Activity [45]: inactive
inhibition [46]: inactive
MIC [39]: 4 µg/mL (≈ 13.1 µM)
MIC [47]: 0.5 µg/mL
viability at 24 h, 2 times MIC [48]: 88.6%
